# In patent publication US4612185A, “Methods and compositions for enhancing magnetic resonance imaging” (Mallinckrodt, Inc., priority 1984, dated 1986):
# What was measured:
# liver or kidney = assay: In vivo fluorine (19F) MR spectra of liver and kidney in anesthetized rabbit; conditions: 4 mmol F/kg intravenous, 1.9 Tesla
# Excerpt: (§1) An anesthetized rabbit was placed in a 12 inch bore, 1.9 Tesla MRI magnet. An RF coil ([…], I.D., 4 cm, O.D.) was placed on the surface of the liver or a kidney which were excised surgically. Fluorine spectra were obtained following 4 mmol F/kg intravenous doses of a solution of sodium [2-(trifluoromethyl)benzamido]acetate (20%, w/v, 2.2 M F, of the compound).
# mice = assay: Acute intravenous toxicity in mice, 7-day observation, LD50 by Litchfield and Wilcoxon; format: in vivo, mouse (Swiss ICR CD-1); conditions: for MORTALITIES/NUMBER TREATED / AVERAGE SURVIVOR WEEKLY BODY WEIGHT CHANGE: single intravenous; for MORTALITIES/NUMBER TREATED: 7 days; for AVERAGE SURVIVOR WEEKLY BODY WEIGHT CHANGE: survivors
# Procedure: Sodium [2-(trifluoromethyl) benzamido] acetate was prepared as a 20% w/v solution in sterile water for injection and the pH was adjusted to 7.0 using 0.1 N HCl.
# A total of 14 mice (7 male, 24.6-30.0 g; 7 females, 18.6-26.0 g; Swiss ICR CD-1, Charles River) were used. Animals were housed according to standard operating procedures and marked for identification with picric acid.
# Groups of 2-3 mice received single intravenous injections of sodium [2-(trifluoromethyl)benzamido]acetate according to the followinq schedule:
# Measured single doses were injected into the lateral tail vein at a rate of 1 ml/min. The animals were observed immediately after dosing and during the 7-day observation period for pharmacotoxic reactions. Recording of terminal body weights and general necrospy of the thoracic and abdominal organs was performed after 7 days. An LD50 value was calculated using the method of Litchfield and Wilcoxon (J. Pharmacol. Exp. Ther. 96:99,1949).
# [1] = test system: liver, heart, kidney, skeletal muscle, spleen, blood and urine samples; assay: Fluorine analysis of rabbit tissue, blood and urine samples by MR spectroscopy; format: in vivo; conditions: 4 mmol F/kg intravenous, conclusion of experiment
# Excerpt: as §1
# At the conclusion of the experiment, the rabbit was killed and liver, heart, kidney, skeletal muscle, spleen, blood and urine samples were analyzed for fluorine by MR spectroscopy.
compound,measurement,setting,value
O=C([O-])CNC(=O)c1ccccc1C(F)(F)F.[Na+] [sodium [2-(trifluoromethyl)benzamido]acetate],fluorine spectra in liver and kidney,liver or kidney; both liver and kidney,only a single peak which was the same as the spectrum from a solution of sodium [2-(trifluoromethyl)benzamido]acetate
same,fluorine signal intensity in kidney,liver or kidney; kidney,peaked very rapidly in the kidney and remained elevated for several minutes
same,fluorine signal intensity in liver,liver or kidney; liver versus kidney,less than that for the kidney and took a longer time to peak
same,MORTALITIES/NUMBER TREATED,mice; 1000 mg/kg,0/2
same,AVERAGE SURVIVOR WEEKLY BODY WEIGHT CHANGE,mice; 1000 mg/kg,0.1 g
same,MORTALITIES/NUMBER TREATED,mice; 2000 mg/kg,0/2
same,AVERAGE SURVIVOR WEEKLY BODY WEIGHT CHANGE,mice; 2000 mg/kg,2.2 g
same,MORTALITIES/NUMBER TREATED,mice; 4000 mg/kg,0/2
same,AVERAGE SURVIVOR WEEKLY BODY WEIGHT CHANGE,mice; 4000 mg/kg,1.8 g
same,MORTALITIES/NUMBER TREATED,mice; 6000 mg/kg,1/3
same,AVERAGE SURVIVOR WEEKLY BODY WEIGHT CHANGE,mice; 6000 mg/kg,1.0 g
same,MORTALITIES/NUMBER TREATED,mice; 7000 mg/kg,2/3
same,AVERAGE SURVIVOR WEEKLY BODY WEIGHT CHANGE,mice; 7000 mg/kg,2.7 g
same,MORTALITIES/NUMBER TREATED,mice; 8000 mg/kg,2/2
same,reactions preceding death,"mice; intravenous, all deaths",mild convulsions
same,time of deaths after treatment,"mice; intravenous, all deaths",≤ 10 min
same,time after treatment within which all survivors appeared normal,"mice; intravenous, all survivors",≤ 5 h
same,toxic reactions (hyperactivity),"mice; intravenous, doses=2000 mg/kg (so in the source)",mild hyperactivity
same,toxic reactions (hypoactivity),"mice; intravenous, doses=4000 mg/kg (so in the source)",dose-related hypoactivity
same,"body weight of one survivor, week after treatment","mice; intravenous, one survivor dosed with 1000 mg",body weight loss
same,body weight of all other survivors,"mice; intravenous, one week",weight gains
same,estimated mouse intravenous LD50,"mice; mouse, intravenous, compound dose",6500 mg/kg
same,intravenous toxicity profile,mice; summary statement of toxicity studies,extremely good intravenous toxicity profile
same,necropsy findings,"mice; thoracic and abdominal organs, following one week observation",No abnormalities were observed
same,"fluorine concentrations in kidney, urine and blood",[1],highest concentrations of fluorine
same,fluorine in other tissue specimens,"[1]; specimens other than kidney, urine, blood",minimal fluorine detected
